Key:
[1] = system: patients with HE; conditions: rifaximin 1200 mg/day, neomycin 3 g/day; cited from earlier work
[2] = male, human, in vivo
[3] = system: patients with HE; type: in vivo, human
Source text: Total number of hospitalizations, duration of hospitalizations, HE endpoints, and cost of therapy were compared between the 2 treatment regimens.

[4] = system: liver transplant patients who presented with HE; test: Chart review of 39 liver transplant patients with HE; type: in vivo, human

In the case of neomycin, the “efficacy in patients with HE” value [1] is given as “comparable efficacy”.
In the case of `CO[C@H]1/C=C/O[C@@]2(C)Oc3c(C)c(O)c4c(O)c(c5c(nc6cc(C)ccn65)c4c3C2=O)NC(=O)/C(C)=C\C=C\[C@H](C)[C@H](O)[C@@H](C)[C@@H](O)[C@@H](C)[C@H](OC(C)=O)[C@@H]1C` [14C-Rifaximin], the “amount of radioactivity in urine (bound)” value [2] is reported as < 0.4 % of the dose.
With `OC[C@H]1O[C@@H](O[C@@H]2[C@@H](CO)OC(O)(CO)[C@H]2O)[C@H](O)[C@@H](O)[C@H]1O` (mixture of isomers) [lactulose] the “patients with Conn scores of 3 or 4” value ([3]; end of treatment period) was 25%, the days hospitalized ([3]; human, in vivo) was 7.3 days and the “patients with asterixis at end of treatment period” value ([3]; human, in vivo) was 93%. The “patients with diarrhea, flatulence, and abdominal pain” value ([3]; human, in vivo) was “significantly more patients”, the hospitalizations ([3]; rifaximin 400 mg 3 times/day, lactulose 30 mL twice daily) was 1.6 and the hospitalizations reported ([4]; 15 rifaximin, 24 lactulose patients) was “Nineteen”. For the same compound, the “average length of stay” value ([4]; human, in vivo) was 5.0 days.

Source: patent US9629828B2, “Methods of treating traveler's diarrhea and hepatic encephalopathy” (priority 2008, dated 2017)
